Consider one compound from article PMC8632000 (Frontiers in Pharmacology, 2021).

For data set [1] the following is noted: cited from earlier work.
The nature of data set [2]: Population pharmacokinetic model (NONMEM) of vancomycin plasma concentration-time data in surgical patients.
Method: Only patients who underwent a major surgical procedure and were above the age of 18 years were included in the study. […] The dose selection and duration of infusion were at the discretion of the attending medical practitioners. […] Patient demographics, including age, weight, sex, type of disease, and serum creatinine (SCR) were recorded from patient files, and creatinine clearance (CRCL) was calculated using the Cockcroft and Gault equation ([Cockcroft and Gault, 1976]).
Briefly, separation was carried out using a C18 column (125 mm × 4.6 mm, 5 µm) with UV detection at 205 nm. The mobile phase was a combination of buffer (50 mM ammonium dihydrogen phosphate) at pH 2.2 and acetonitrile (88:12 v/v). The method was linear over the concentration range of 0.25–60 mg/l.
The population pharmacokinetic model was developed using nonlinear mixed effect modeling (NONMEM version 7.4.4) software provided by Icon Clinical Research LLC, New York, NY, USA, along with the Perl-speaks-NONMEM (PsN) toolkit ([Lindbom et al., 2005]). The execution and management of the model as well as report generation were performed with the aid of Pirana (Certara, Princeton, NJ, USA) ([Keizer et al., 2011]). The actual process of modeling began with the development of one-compartment and two-compartment base models using the first-order conditional estimation method with interaction (FOCE-I) to obtain pharmacokinetic parameter estimates without any covariates. […] The exponential random-effect model was used to describe the between-subject variability (BSV) on pharmacokinetic (PK) parameters, while additive, proportional, and combined residual error models were tested to describe the residual error between the observed and predicted concentrations of vancomycin.
The influence of different covariates (age, sex, WT, SeCR, and CRCL) on CL and Vd was determined by stepwise covariate modeling (SCM) in which the covariates were included in the model by forward inclusion and backward elimination processes. […]
Setting [3] is: median of 1,000 bootstrap estimates.

The structures appear in SMILES notation.

For `CN[C@H](CC(C)C)C(=O)N[C@H]1C(=O)N[C@@H](CC(N)=O)C(=O)N[C@H]2C(=O)N[C@H]3C(=O)N[C@H](C(=O)N[C@H](C(=O)O)c4cc(O)cc(O)c4-c4cc3ccc4O)[C@H](O)c3ccc(c(Cl)c3)Oc3cc2cc(c3O[C@@H]2O[C@H](CO)[C@@H](O)[C@H](O)[C@H]2O[C@H]2C[C@](C)(N)[C@H](O)[C@H](C)O2)Oc2ccc(cc2Cl)[C@H]1O` [Vancomycin], the “Vancomycin CL in obese patients” value in data set [1] (obese patients, ref Blouin et al., 1982, Bauer et al., 1998, Adane et al., 2015) is 6.54 to 11.8 L/h. Further, in data set [1] (ref Buelga et al., 2005, Llopis-Salvia and Jiménez-Torres, 2006, Staatz et al., Thomson et al., 2009, Tanaka et al., 2010, Udy et al., 2013, Escobar et al., 2014, Usman et al., 2018), the “Reported CL values in other studies” value was 1.08 to 2.99 L/h. Moreover, the “Vd, lower end of reported range” value in data set [1] (ref Escobar et al., 2014) was 11.8 L. For the same compound, the “Vd, upper end of reported range” value in data set [1] (ref Lin et al., 2016) is 101 L. In addition, in data set [1] (ref Matzke et al., 1984, Rodvold et al., 1988, Ducharme et al., 1994), the “Fraction of drug excreted via renal elimination” value is 80%–90%. In addition, in data set [2] (setting [3]), the “CL, bootstrap estimate” value is on record as 2.46 L/h and the “V, bootstrap estimate” value is listed as 22.7 L. Besides, the “V (volume of distribution), final estimate” value in data set [2] (one-compartment final model, 58 patients) was 22.6 L.
